For one data set, the system named is Sitosterol Absorption. As to the kind of experiment: In vivo evaluation in mice: [3H]-sitosterol absorption and hepatic accumulation. The method, then:
In vivo activity of compound VIII in mice was determined by the following procedure:
Male ApoE knockout mice, age 6 wks, were received from Jackson Laboratory along with age-matched C57BL/J. The mice were housed 5 per cage, normal light cycle, normal diet. Twenty-six mice of each variety were weighed and housed, 1 per cage, in suspended wire cages with normal light cycle, normal diet. After three days, the mice were reweighed. Based on body weight, the mice were divided into 5 groups for each type of treatment:
Control (corn oil) and Compositions including Compound VIII at 0.3, 1, 3, and 10 mg/kg of body weight per day.
Preparation of Compositions including Compound VIII based on 22 g average mouse body weight:
The mice were gavaged using a feeding needle 30 min before receiving ^14C-cholesterol (NEN, NEC 018) and ^3H-sitosterol (NEN, CUS 030T). The radioactive dose was prepared from: • 114 μL ^3H-sitosterol stock (1 μCi/μL in ethanol); • 1.425 mL ^14C-cholesterol stock (40 μCi/mL in ethanol); • 5.7 mg cholesterol, Sigma C 8667; • 5.7 mg β-sitosterol, Sigma, S 1270; • The ethanol was removed under N2; • 5.7 ml of corn oil was added, and the mixture was warmed to 60° C.; and shaken for 1 hr.
Each 0.1 ml dose contained 2 μCi ^3H-sitosterol, 0.1 mg cold (non radioactive) sitosterol; 1 μCi ^14C-cholesterol, and 0.1 mg cold (non radioactive) cholesterol. Radioactive content was verified: 5×10 μl counted in Beckman LSC (liquid […] counter). Tritiated sitosterol was used as an “unabsorbable” marker to compare to the absorption of [^14C]-cholesterol in a mouse fecal isotope ratio cholesterol absorption model.
On the 4th, 5th, and 6th days, feces were collected and stored at −20° C. in vials just before dosing with Control or Compound VIII late in the day. Termination of the experiment on the 7th day involved sacrifice by exsanguination, removal and weighing of the liver. 3×˜250 mg samples of liver were put in vials. The liver samples were digested with 1 ml of 1N NaOH at 60° overnight, neutralized with 0.1 ml 12N HCl and counted for ^14C and ^3H. The blood samples were allowed to clot at room temp for 1 hr, then centrifuged at 1000 G for 15 min. The serum was analyzed for total cholesterol (see Wako C I I; see Allain C C, Poon L S, Chan C S G, Richmond W, Fu P C. Enzymatic Determination of Total Serum Cholesterol. Clin. Chem. 1974; 20:470-475, which is incorporated by reference herein) and radioactivity (2×50 μL). Fecal samples were analyzed for radioactivity by combustion in a Packard Oxidizer followed by Beckman LSC.

In data set [1] the test system is plasma plant sterols (sitosterol and campesterol) and LDL-C. Kind of data set: In vivo evaluation in humans: randomized, double-blind, placebo-controlled 8-week trial in homozygous sitosterolemia. Also noted: species or system human. The note with it: homozygous sitosterolemia patients, 8 weeks. The procedure: In a randomized multicenter, double-blind, placebo-controlled, 8-week trial, 37 human patients previously diagnosed with homozygous sitosterolemia were randomized to receive Compound VIII (n=30) or placebo (n=7): • Treatment A—Compound VIII given orally as 1 dose (10 mg) per day, • Treatment B—Placebo (matching image of Compound VIII 10 mg) given orally as 1 dose per day, every morning for 8 consecutive weeks.
During the trial, subjects were instructed to maintain (as a minimum) a National Cholesterol Education Program (NCEP) Step 1 diet
Patients were instructed to maintain a diary of food intake and monitored prior to randomization, at baseline and during therapy. Results of the central diet analysis for each subject were reported as a RISCC score (Ratio of Ingested Saturated fat and Cholesterol to Calories) and as dietary components. RISCC scores indicate the potential for a diet to influence plasma lipid levels. A score ranging from 14 to 20 correlates with a NCEP step 1 diet.
Low-Density-Lipoprotein-Cholesterol (LDL-C) results were reported as direct LDL-C (plasma concentration was determined following a standard ultra centrifugation/precipitation procedure; lipid and lipoprotein analysis, see Manual of Laboratory Operations: Lipid Research Clinics Program Report. Washington, D.C.: US Department of Health, Education, and Welfare publication; 1974. NIH 75-628, vol 1, which is incorporated by reference herein or beta-quantification) and calculated LDL-C (plasma concentration; based on Freidewald equation: LDL-C=Total cholesterol minus (Triglycerides divided by 5) minus High-density-lipoprotein cholesterol (HDL-C)).
Total cholesterol and Triglycerides were determined enzymatically using a Hitachi 747 analyzer; see, Steiner P M, Freidel J, Bremner W F, Stein E A: Standardization of micromethods for plasma cholesterol, triglyceride and HDL-cholesterol with the Lipid Clinics' methodology [abstract]. J Clin Chem Clin Biochem 1981;19:850, which is incorporated by reference herein.
HDL-C was determined enzymatically after heparin and magnesium precipitation; see, Steele W B, Koehle D F, Azar M M, Blaszkowski T P, Kuba K, Dempsey M E: Enzymatic determinations of cholesterol in high density lipoprotein fractions prepared by precipitation technique. Clin Chem 1976;22:98-101, which is incorporated by reference herein.
Plasma plant sterols (sitosterol and campesterol) and LDL-C were assessed at baseline (Day 1) and at endpoint (average of Weeks 6 and 8 values). See: Salen, Gerald; Shore, Virgie; Tint, G S; Forte, T: Shefer, S; Horak, I; Horak, E; Dayal, B; Nguyen, L.; Batta, A K; Lindgren, F T; Kwiterovich, Jr, P O, “Increased sitosterol absorption, decreased removal and expanded body pools compensate for reduced cholesterol synthesis in sitosterolemia with xanthomatosis”, J Lipid Res, Vol. 30, pp 1319-30, (1989) and Lutjohann, D; Bjorkhem, I; Beil, U F, and von Bergmann, K, “Sterol absorption and sterol balance in phytosterolemia evaluated by deuterium-labeled sterols: effect of sitostanol treatment” J Lipid Res. Vol. 36:(8), pp 1763-73, (1995), each of which is incorporated by reference herein.

[2] abbreviates: 10 mg orally once daily, endpoint = average of Weeks 6 and 8.

Structures are written as SMILES.

`O=C1[C@H](CC[C@H](O)c2ccc(F)cc2)[C@@H](c2ccc(O)cc2)N1c1ccc(F)cc1` [Compound VIII, ezetimibe]: the “% of administered dose absorbed of [^3H]-sitosterol in liver (total animal liver), average” value with Sitosterol Absorption (ApoE KO mice, 0.3 mg/kg/day by gavage in corn oil) was 0.1863%; with Sitosterol Absorption (ApoE KO mice, 1 mg/kg/day by gavage in corn oil), 0.1019%; in the data set with Sitosterol Absorption (ApoE KO mice, 3 mg/kg/day by gavage in corn oil) it was 0.0772%; in the data set with Sitosterol Absorption (ApoE KO mice, 10 mg/kg/day by gavage in corn oil), 0.0780%; in the data set on Sitosterol Absorption (C57BL/6J mice, 0.3 mg/kg/day by gavage in corn oil) it was 0.1093%; in the data set on Sitosterol Absorption (C57BL/6J mice, 1 mg/kg/day by gavage in corn oil), 0.0588%. In addition, the “% of administered dose absorbed of [^3H]-sitosterol in liver (total animal liver), average” value in the data set on Sitosterol Absorption (C57BL/6J mice, 3 mg/kg/day by gavage in corn oil) was 0.0489%; in the data set with Sitosterol Absorption (C57BL/6J mice, 10 mg/kg/day by gavage in corn oil), 0.0552%. Besides, in the data set with Sitosterol Absorption (C57BL/6J and Apo E KO mice, 0.3-10 mg/kg/day), the “absorption and hepatic accumulation of sitosterol” value is given as “dose dependently inhibit”. In addition, the “mean (S.E.) percent change from Baseline at endpoint in plasma Campesterol” value in data set [1] (setting [2]) is on record as −24.3% (2.9%). For the same molecule, in data set [1] (setting [2]), the “mean (S.E.) percent change from Baseline at endpoint in plasma Sitosterol” value is listed as −21.0% (2.8%). Further, in data set [1] (setting [2]), the “percent change from Baseline at endpoint in LDL-C (mean, 95% CI)” value was −13.6% (−21.7%, −5.5%). Further, the “reduction in campesterol compared to placebo” value in data set [1] (10 mg per day) is on record as “significant (p<0.001) reduction”. Besides, the “reduction in sitosterol compared to placebo” value in data set [1] (10 mg per day) is “significant (p<0.001) reduction”. In addition, the tolerability entry in data set [1] (10 mg per day) was “well tolerated”.

For the origin of these results see patent publication US7417039B2, “Use of substituted azetidinone compounds for the treatment of sitosterolemia” (Schering Corporation, priority 2001, dated 2008).
